This is an account of results in patent publication US12077555B2, “STAT degraders and uses thereof” (Kymera Therapeutics, Inc., priority 2019, dated 2024).

This test concerns the target STAT3 (Homo sapiens, UniProt P40763). Description: STAT3 HiBiT degradation assay in transfected A549 cells. Also noted: expressed in transfected cells; host or cells: A549. The note with it: A549, 24 h; read-out: STAT3 HiBiT A549 degradation 24 h: Average external-Abs DC50. In kind it is cell-based. In outline: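 Degradation read as HiBiT-tagged STAT3 luminescence (Nano-Glo lytic reagent, 10 min, room temperature) following 24 h compound treatment of transfected A549 cells at 3-fold, 10 points. Percent remaining signal computed against controls and fitted with a four-parameter logistic; DC50 reported as letter bins (A <0.01 to D >1.0 µM).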

Chain of STAT3 (P40763 whole entry): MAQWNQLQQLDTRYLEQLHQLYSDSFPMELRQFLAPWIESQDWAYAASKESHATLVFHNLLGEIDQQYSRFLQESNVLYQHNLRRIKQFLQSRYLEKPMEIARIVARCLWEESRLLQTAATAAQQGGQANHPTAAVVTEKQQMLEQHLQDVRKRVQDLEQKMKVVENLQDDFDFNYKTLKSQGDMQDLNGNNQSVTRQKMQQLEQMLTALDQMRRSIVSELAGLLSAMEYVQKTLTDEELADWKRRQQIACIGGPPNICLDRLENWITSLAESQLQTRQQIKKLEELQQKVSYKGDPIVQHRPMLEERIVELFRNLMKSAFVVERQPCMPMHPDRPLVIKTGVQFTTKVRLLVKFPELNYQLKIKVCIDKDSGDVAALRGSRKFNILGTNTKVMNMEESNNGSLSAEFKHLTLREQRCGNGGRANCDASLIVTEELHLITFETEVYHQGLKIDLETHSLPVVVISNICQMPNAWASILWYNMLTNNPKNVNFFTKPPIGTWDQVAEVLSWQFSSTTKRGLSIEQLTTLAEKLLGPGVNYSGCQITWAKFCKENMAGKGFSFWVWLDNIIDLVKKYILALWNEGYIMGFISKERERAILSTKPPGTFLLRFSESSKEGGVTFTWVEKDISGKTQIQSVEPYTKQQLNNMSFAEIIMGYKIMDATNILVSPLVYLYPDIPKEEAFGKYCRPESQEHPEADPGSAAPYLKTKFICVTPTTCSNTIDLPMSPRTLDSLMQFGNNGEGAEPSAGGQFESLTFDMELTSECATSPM

As to `Cc1ccc(OC[C@H](CCC(N)=O)NC(=O)[C@@H]2Cc3cccc4c3N2C(=O)[C@@H](NC(=O)c2cc3cc(C(=O)P(=O)(O)O)ccc3[nH]2)CC4)c(F)c1CCCCCC(=O)N[C@H](C(=O)N1C[C@H](O)C[C@H]1C(=O)N[C@@H](C)c1ccc(-c2scnc2C)cc1)C(C)(C)C` [Compound I-251], the DC50 is under 10 nM.

In the case of `Cc1ncsc1-c1ccc([C@H](C)NC(=O)[C@@H]2C[C@@H](O)CN2C(=O)[C@@H](NC(=O)CCCCc2ccc(CO[C@H](C)[C@H](CCC(N)=O)NC(=O)[C@@H]3Cc4cccc5c4N3C(=O)[C@@H](NC(=O)c3cc4cc(C(=O)P(=O)(O)O)ccc4[nH]3)CC5)cc2)C(C)(C)C)cc1` [Compound I-227], the DC50 was in the range of 100 to 1000 nM.

For the molecule `Cc1ncsc1-c1ccc(CNC(=O)[C@@H]2C[C@@H](O)CC2C(=O)[C@@H](NC(=O)CCCCC/C=C\COC[C@H](CCC(N)=O)NC(=O)[C@@H]2Cc3cccc4c3N2C(=O)[C@@H](NC(=O)c2cc3cc(C(=O)P(=O)(O)O)ccc3[nH]2)CC4)C(C)(C)C)cc1` (stereo partly drawn) [Compound I-171], the DC50 was in the range of 100 to 1000 nM.

Regarding `Cn1c(=O)n(C2CCC(=O)NC2=O)c2ccc(CC3CCC(Cc4cc5c6c(c4)C[C@@H](C(=O)N[C@@H](CCC(N)=O)C(=O)NC(c4ccccc4)c4ccccc4)N6C(=O)[C@@H](NC(=O)c4cc6cc(C(=O)P(=O)(O)O)ccc6[nH]4)CC5)CC3)cc21` (stereo partly drawn) [Compound I-245, 2-[[(2S,11S)-2-[[(1S)-3-carbamoyl-1-(diphenylmethylcarbamoyl)propyl]carbamoyl]-6-[(4-[[1-(2,6-dioxopiperidin-3-yl)-3-methyl-2-oxo-1,3-benzodiazol-5-yl]methyl]cyclohexyl)methyl]-12-oxo-1-azatricyclo[6.4.1.0^[4,13]]trideca-4(13),5,7-trien-11-yl]carbamoyl]-1H-indole-5-carbonylphosphonic acid], the DC50 was in the range of 100 to 1000 nM.

Take `CC(=O)N1CC[C@H]2CC[C@@H](C(=O)N[C@@H](CCC(N)=O)[C@@H](C)OCc3ccc(CCCCC(=O)N[C@H](C(=O)N4C[C@H](O)C[C@H]4C(=O)NCc4ccc(-c5scnc5C)cc4)C(C)(C)C)cc3)N2C(=O)[C@@H](NC(=O)c2cc3cc(C(=O)P(=O)(O)O)ccc3[nH]2)C1` [Compound I-165]: the DC50 lay in the range of 100 to 1000 nM.

Take `Cn1c(=O)n(C2CCC(=O)NC2=O)c2cccc(CCCCCCCCC(=O)N3CC[C@H]4CC[C@@H](C(=O)N[C@@H](CCC(N)=O)C(=O)NC(c5ccccc5)c5ccccc5)N4C(=O)[C@@H](NC(=O)c4cc5cc(C(=O)P(=O)(O)O)ccc5[nH]4)C3)c21` (stereo partly drawn) [Compound I-125, 2-[[(5S,8S,10aR)-8-[[(1S)-3-carbamoyl-1-(diphenylmethylcarbamoyl)propyl]carbamoyl]-3-[9-[1-(2,6-dioxopiperidin-3-yl)-3-methyl-2-oxo-1,3-benzodiazol-4-yl]nonanoyl]-6-oxo-octahydropyrrolo[1,2-a][1,5]diazocin-5-yl]carbamoyl]-1H-indole-5-carbonylphosphonic acid]: the DC50 fell in the range of 100 to 1000 nM.

As to `Cc1ncsc1-c1ccc([C@H](C)NC(=O)[C@@H]2C[C@@H](O)CN2C(=O)[C@@H](NC(=O)CCCCCc2cccc(NC(=O)[C@H](CCC(N)=O)NC(=O)[C@@H]3Cc4cccc5c4N3C(=O)[C@@H](NC(=O)c3cc4cc(C(=O)P(=O)(O)O)ccc4[nH]3)CC5)c2F)C(C)(C)C)cc1` [Compound I-250, 2-[[(2S,11S)-2-[[(1S)-3-carbamoyl-1-[[2-fluoro-3-(5-[[(2S)-1-[(2S,4R)-4-hydroxy-2-[[(1S)-1-[4-(4-methyl-1,3-thiazol-5-yl)phenyl]ethyl]carbamoyl]pyrrolidin-1-yl]-3,3-dimethyl-1-oxobutan-2-yl]carbamoyl]pentyl)phenyl]carbamoyl]propyl]carbamoyl]-12-oxo-1-azatricyclo[6.4.1.0^[4,13]]trideca-4(13),5,7-trien-11-yl]carbamoyl]-1H-indole-5-carbonylphosphonic acid], the DC50 lay within 10 to 100 nM.

Turning to `Cc1ncsc1-c1ccc(CNC(=O)[C@@H]2C[C@@H](O)CN2C(=O)[C@@H](NC(=O)CCCCCc2ccc(OC[C@H](CCC(N)=O)NC(=O)[C@@H]3Cc4cccc5c4N3C(=O)[C@@H](NC(=O)c3cc4cc(C(=O)P(=O)(O)O)ccc4[nH]3)CC5)cc2)C(C)(C)C)cc1` [Compound I-152, 2-[[(2S,11S)-2-[[(2S)-4-carbamoyl-1-[4-(5-[[(2S)-1-[(2S,4R)-4-hydroxy-2-([[4-(4-methyl-1,3-thiazol-5-yl)phenyl]methyl]carbamoyl)pyrrolidin-1-yl]-3,3-dimethyl-1-oxobutan-2-yl]carbamoyl]pentyl)phenoxy]butan-2-yl]carbamoyl]-12-oxo-1-azatricyclo [6.4.1.0^[4,13]]trideca-4(13),5,7-trien-11-yl]carbamoyl]-1H-indole-5-carbonylphosphonic acid], the DC50 was over 1000 nM.

Turning to `Cn1c(=O)n(C2CCC(=O)NC2=O)c2ccc(N3CC(CCCC(=O)N4CC[C@H]5CC[C@@H](C(=O)N[C@@H](CCC(N)=O)C(=O)NC(c6ccccc6)c6ccccc6)N5C(=O)[C@@H](NC(=O)c5cc6cc(C(=O)P(=O)(O)O)ccc6[nH]5)C4)C3)cc21` (stereo partly drawn) [Compound I-135, 2-[[(5S,8S,10aR)-8-[[(1S)-3-carbamoyl-1-(diphenylmethylcarbamoyl)propyl]carbamoyl]-3-(4-[1-[1-(2,6-dioxopiperidin-3-yl)-3-methyl-2-oxo-1,3-benzodiazol-5-yl]azetidin-3-yl]butanoyl)-6-oxo-octahydropyrrolo[1,2-a][1,5]diazocin-5-yl]carbamoyl]-1H-indole-5-carbonylphosphonic acid], the DC50 lay in the range of 100 to 1000 nM.

For the molecule `Cc1cc(CCCCCC(=O)N[C@H](C(=O)N2C[C@H](O)C[C@H]2C(=O)N[C@@H](C)c2ccc(-c3scnc3C)cc2)C(C)(C)C)c(F)c(OC[C@H](CCC(N)=O)NC(=O)[C@@H]2Cc3cccc4c3N2C(=O)[C@@H](NC(=O)c2cc3cc(C(=O)P(=O)(O)O)ccc3[nH]2)CC4)c1` [Compound I-266, 2-[[(2S,11S)-2-[[(2S)-4-carbamoyl-1-[2-fluoro-3-(5-[[(2S)-1-[(2S,4R)-4-hydroxy-2-[[(1S)-1-[4-(4-methyl-1,3-thiazol-5-yl)phenyl]ethyl]carbamoyl]pyrrolidin-1-yl]-3,3-dimethyl-1-oxobutan-2-yl]carbamoyl]pentyl)-5-methylphenoxy]butan-2-yl]carbamoyl]-12-oxo-1-azatricyclo[6.4.1.[4,13]]trideca-4(13),5,7-trien-11-yl]carbamoyl]-1H-indole-5-carbonylphosphonic acid], the DC50 is under 10 nM.

Turning to `Cc1ncsc1-c1ccc(CNC(=O)[C@@H]2C[C@@H](O)CN2C(=O)[C@@H](NC(=O)CCCCCc2cccc(O[C@H](C)[C@H](CCC(N)=O)NC(=O)[C@@H]3Cc4cccc5c4N3C(=O)[C@@H](NC(=O)c3cc4cc(C(=O)P(=O)(O)O)ccc4[nH]3)CC5)c2)C(C)(C)C)cc1` [Compound I-210, 2-[[(2S,11S)-2-[[(3S,4R)-1-carbamoyl-4-[3-(5-[[(2S)-1-[(2S,4R)-4-hydroxy-2-([[4-(4-methyl-1,3-thiazol-5-yl)phenyl]methyl]carbamoyl)pyrrolidin-1-yl]-3,3-dimethyl-1-oxobutan-2-yl]carbamoyl]pentyl)phenoxy]pentan-3-yl]carbamoyl]-12-oxo-1-azatricyclo[6.4.1.0^[4,13]]trideca-4(13),5,7-trien-11-yl]carbamoyl]-1H-indole-5-carbonylphosphonic acid], the DC50 was over 1000 nM.

Turning to `Cn1c(=O)n(C2CCC(=O)NC2=O)c2ccc(CN3CCN(CC(=O)N4CC[C@H]5CC[C@@H](C(=O)N[C@@H](CCC(N)=O)C(=O)NC(c6ccccc6)c6ccccc6)N5C(=O)[C@@H](NC(=O)c5cc6cc(C(=O)P(=O)(O)O)ccc6[nH]5)C4)CC3)cc21` (stereo partly drawn) [Compound I-157, 2-[[(5S,8S,10aR)-8-[[(1S)-3-carbamoyl-1-(diphenylmethylcarbamoyl)propyl]carbamoyl]-3-[2-(4-[[1-(2,6-dioxopiperidin-3-yl)-3-methyl-2-oxo-1,3-benzodiazol-5-yl]methyl]piperazin-l-yl)acetyl]-6-oxo-octahydropyrrolo[1,2-a][1,5]diazocin-5-yl]carbamoyl]-1H-indole-5-carbonylphosphonic acid], the DC50 was 100 to 1000 nM.

With `Cc1ncsc1-c1ccc(CNC(=O)[C@@H]2C[C@@H](O)CN2C(=O)[C@@H](NC(=O)CN2CCC(Cc3ccc(CO[C@H](C)[C@H](CCC(N)=O)NC(=O)[C@@H]4Cc5cccc6c5N4C(=O)[C@@H](NC(=O)c4cc5cc(C(=O)P(=O)(O)O)ccc5[nH]4)CC6)cc3)CC2)C(C)(C)C)cc1` [Compound I-178], the DC50 is over 1000 nM.

Regarding `Cc1cc(CCCC(=O)N[C@H](C(=O)N2C[C@H](O)C[C@H]2C(=O)N[C@@H](C)c2ccc(-c3scnc3C)cc2)C(C)(C)C)c(F)c(OC[C@H](CCC(N)=O)NC(=O)[C@@H]2Cc3cccc4c3N2C(=O)[C@@H](NC(=O)c2cc3cc(C(=O)P(=O)(O)O)ccc3[nH]2)CC4)c1` [Compound I-235, diammonium 2-[[(2S,11S)-2-[[(2S)-4-carbamoyl-1-[2-fluoro-3-(3-[[(2S)-1-[(2S,4R)-4-hydroxy-2-[[(1S)-1-[4-(4-methyl-1,3-thiazol-5-yl)phenyl]ethyl]carbamoyl]pyrrolidin-1-yl]-3,3-dimethyl-1-oxobutan-2-yl]carbamoyl]propyl)-5-methyl-phenoxy]butan-2-yl]carbamoyl]-12-oxo-1-azatricyclo[6.4.1.0^[4,13]]trideca-4(13),5,7-trien-11-yl]carbamoyl]-1H-indole-5-carbonylphosphonate], the DC50 is over 1000 nM.

As for `Cc1ncsc1-c1ccc(CNC(=O)[C@@H]2C[C@@H](O)CN2C(=O)[C@@H](NC(=O)CCCCCc2ccc(CNC(=O)[C@H](CCC(N)=O)NC(=O)[C@@H]3Cc4cccc5c4N3C(=O)[C@@H](NC(=O)c3cc4cc(C(=O)P(=O)(O)O)ccc4[nH]3)CC5)cc2)C(C)(C)C)cc1` [Compound I-140], the DC50 is over 1000 nM.
